In patent EP0721336B1, “BENZAZOLE COMPOUNDS FOR USE IN THERAPY” (CANCER RESEARCH CAMPAIGN TECHNOLOGY LIMITED, priority 1993, dated 1995):
Counter-ions that a name gives are not always drawn. Like-named read-outs stand apart in the source and are kept apart here. Marks after values point to notes of the source that are not given here.

Experiments:
[1] = test system: MCF-7 mammary carcinoma cells; experiment: In vitro cytotoxicity assay (cell growth, propidium iodide fluorescence); type: cell-based, human
From the text: (§1) This is illustrated in Tables 1 and 2 at the end of the present description which show in vitro test results obtained in various sets of experiments for the cytotoxic activity of this compound CJM 126 against a range of human tumour cell lines, expressed in terms of IC50 values (concentration or dosage required to reduce cell growth or proliferation by 50%) calculated from dose-effect curves plotted for cultures of the cells in question.
(§2) In carrying out the above in vitro studies, the method used for conducting the cytotoxicity assays was generally substantially as follows: • Cells were maintained in a continuous logarithmic culture in Dulbecco's medium supplemented with 10% fetal calf serum and penicillin (100 IU/ml) and streptomycin (100 µg/ml). The cells were mildly trypsinized for passage and for use in assays. On day zero, 100µl of trypsinized tumour cells (1 x 10^4/ml) were plated in the wells of 96-well flat-bottom microtiter plates. […] On day two 50µl of the highest drug concentration was added to the wells of column 12 and from there serially diluted 3-fold to column 1 by serial transfer of 50µl using an 8-channel micropipette. The final volume of column 1 was adjusted to 100µl. No additions were made to the wells of rows A and B, which served as controls. The plates were further incubated for 5 days at 37°C and 5% CO2 in air. Each compound was tested in duplicate. • On day 7 the test was terminated by the addition of 100µl saline containing 0.002% w/v propidium iodide (Sigma), 0.3% drawing ink (Staedtler "Marsmatic 745" - Trade Mark) and 0.5% Triton X-100. The plates were kept at 4°C overnight before reading on an inverted microscope equipped with an automated scanning stage. Fluorescence intensity was measured in arbitrary units by a photomultiplier. An HP-87 computer controlled the movement of the stage and also collected and processed the data from the multiplier. • For each compound tested a dose-response curve was obtained and the IC50 value (the drug concentration at 50% inhibition of cell growth) was calculated.

[2] = test system: MDA 468 mammary (ER-/EGFR+); experiment: In vitro cytotoxicity assay; type: cell-based, human
From the text: as §1, §2

[3] = test system: BO (T61) human mammary carcinomas; experiment: In vivo activity against implanted BO tumour; set-up: species or system NMRI-nu/nu female mice
MCF 7-ADR mammary = experiment: In vitro cytotoxicity and growth stimulation assay; type: cell-based, human; conditions: for IC50: Homo sapiens, NCI/ADR-RES
From the text: as §1, §2

MCF-7 mammary carcinoma = experiment: In vivo activity against MCF-7 tumour implanted s.c.; conditions: i.v., 10 mg/kg/day, qd 6, 13, 20
[4] = Homo sapiens, MCF7, MCF 7-wt cells, values in text, read-out: IC50
[5] = Homo sapiens, MDA 468 cells, values in text, read-out: IC50
[6] = Homo sapiens, MCF-wt, column B, read-out: MCF-wt B IC50 at >micromolar concentrations
[7] = Homo sapiens, MCF-wt, column A, read-out: MCF-wt A IC50 at sub-micromolar concentrations
[8] = Homo sapiens, column B, read-out: MDA 468 B IC50 at >micromolar concentrations
[9] = Homo sapiens, column A, read-out: MDA 468 A IC50 at sub-micromolar concentrations
[10] = column B, read-out: MCF7-Adr B IC50 at >micromolar concentrations

Cc1ccc2nc(-c3ccc(N)cc3)sc2c1 [2-(4-aminophenyl)-6-methylbenzothiazole, reference compound] was tested, and the IC50 [1, 4] was 0.38 µM and the IC50 [2, 5] was 0.4 µM.

Nc1cccc(-c2nc3ccccc3s2)c1 [CJM 129, 2-(3-Aminophenyl)benzothiazole] was tested, and the BWC ([3]; i.p., 2 mg/kg/day, qd 27,34,41) was 2, the “Relative tumour volume (T/C%)” value ([3]; i.p., 2 mg/kg/day, qd 27,34,41, d33) was 127% and the “Relative tumour volume (T/C%)” value ([3]; i.p., 2 mg/kg/day, qd 27,34,41, d41) was 91%. For the same compound, the “Relative tumour volume (T/C%)” value ([3]; i.p., 2 mg/kg/day, qd 27,34,41, d47) was 94%, the “Relative tumour volume (T/C%)” value ([3]; i.p., 2 mg/kg/day, qd 27,34,41, d55) was 95% and the “Relative tumour volume (T/C%)” value ([3]; i.p., 2 mg/kg/day, qd 27,34,41, d61) was 78%. For the same compound, the BWC ([3]; i.p., 20 mg/kg/day, qd 27,34,41) was -3, the “Relative tumour volume (T/C%)” value ([3]; i.p., 20 mg/kg/day, qd 27,34,41, d33) was 88% and the “Relative tumour volume (T/C%)” value ([3]; i.p., 20 mg/kg/day, qd 27,34,41, d41) was 77%. For the same compound, the “Relative tumour volume (T/C%)” value ([3]; i.p., 20 mg/kg/day, qd 27,34,41, d47) was 54%, the “Relative tumour volume (T/C%)” value ([3]; i.p., 20 mg/kg/day, qd 27,34,41, d55) was 73% and the “Relative tumour volume (T/C%)” value ([3]; i.p., 20 mg/kg/day, qd 27,34,41, d61) was 48* %. For the same compound, the BWC ([3]; i.p., 200 mg/kg/day, qd 27,34,41) was -6, the “Relative tumour volume (T/C%)” value ([3]; i.p., 200 mg/kg/day, qd 27,34,41, d33) was 78* % and the “Relative tumour volume (T/C%)” value ([3]; i.p., 200 mg/kg/day, qd 27,34,41, d41) was 45* %. The “Relative tumour volume (T/C%)” value ([3]; i.p., 200 mg/kg/day, qd 27,34,41, d47) was 32* %, the “Relative tumour volume (T/C%)” value ([3]; i.p., 200 mg/kg/day, qd 27,34,41, d55) was 33* % and the “Relative tumour volume (T/C%)” value ([3]; i.p., 200 mg/kg/day, qd 27,34,41, d61) was 36* %. The “MCF7-Adr A IC50 at sub-micromolar concentrations” value (MCF 7-ADR mammary; column A) was “Inactive”, the “MCF7-Adr B IC50 at >micromolar concentrations” value (MCF 7-ADR mammary; column B) was “Inactive” and the IC50 [1, 6] was over 10 µM.

Compound COc1ccc2nc(-c3ccc(N)cc3)sc2c1 [Compound 93002, 2-(4-Aminophenyl)-6-methoxybenzothiazole] has an IC50 [1, 7] of 0.38 µM and an IC50 [2, 8] of 7.64 µM.

With CCS(=O)(=O)O.Nc1ccc(-c2nc3ccccc3s2)cc1 [Compound 93003, Ethanesulphonic acid salt of 2-(4-aminophenyl)benzothiazole] the “MCF7-Adr C Concentrations which stimulate cell growth” value (MCF 7-ADR mammary; column C) was 3,10 µM, the IC50 ([1]; MCF-wt, column A, read-out: MCF-wt A IC50 at sub-micromolar concentrations) was 0.0046 µM and the IC50 ([2]; column A, read-out: MDA 468 A IC50 at sub-micromolar concentrations) was 0.0024 µM.

Compound Nc1ccc(-c2nc3ccccc3s2)c(Cl)c1 [Compound 93004, 2-(4-Amino-2-Chlorophenyl)benzothiazole] has an IC50 [1, 7] of 0.142 µM and an IC50 [2, 9] of 0.003 µM.

Compound COc1cccc2sc(-c3ccc(N)cc3Cl)nc12 [Compound 93005, 2-(4-amino-2-chlorophenyl)-4-methoxybenzothiazole] has an IC50 (MCF 7-ADR mammary; column A, read-out: MCF7-Adr A IC50 at sub-micromolar concentrations) of 0.0465 µM, an IC50 [1, 7] of 0.063 µM and an IC50 [2, 9] of 0.0022 µM.

In the case of c1ccc2sc(-c3ccc(N4CCCC4)cc3)nc2c1 [Compound 93006, 2-[4-(Pyrrolidin-1-yl)phenyl]benzothiazole], the IC50 [1, 7] is reported as 0.867 µM.

With c1ccc2sc(-c3ccc(N4CCCCC4)cc3)nc2c1 [Compound 93007, 2-[4-(Piperidin-1-yl)phenyl]benzothiazole] the IC50 [1, 6] was 2.77 µM.

Work on c1ccc2sc(-c3ccc(N4CCOCC4)cc3)nc2c1 [Compound 93008, 2-[4-(Morpholin-4-yl)phenyl]benzothiazole] yielded an IC50 [1, 7] of 0.16 µM.

For O=P1(N(CCCl)CCCl)NCCCO1 (centres unmarked) [Cyclophosphamide, reference compound], the BWC ([3]; i.p., 150 mg/kg/day, qd 27) was -4, the “Relative tumour volume (T/C%)” value ([3]; i.p., 150 mg/kg/day, qd 27, d33) was 117% and the “Relative tumour volume (T/C%)” value ([3]; i.p., 150 mg/kg/day, qd 27, d41) was 27* %. The “Relative tumour volume (T/C%)” value ([3]; i.p., 150 mg/kg/day, qd 27, d47) was 29* %, the “Relative tumour volume (T/C%)” value ([3]; i.p., 150 mg/kg/day, qd 27, d55) was 19* % and the “Relative tumour volume (T/C%)” value ([3]; i.p., 150 mg/kg/day, qd 27, d61) was 5* %.

For Nc1ccc(-c2nc3ccccc3o2)cc1 [DF140, 2-(4-Aminophenyl)benzoxazole], the IC50 [1, 7] was 0.11 µM and the IC50 [2, 8] was over 10 µM.

Compound Nc1ccc(-c2nc3cc(OCc4ccccc4)ccc3s2)c(Cl)c1 [DF161, 2-(4-Amino-2-chlorophenyl)-5-benzyloxybenzothiazole] has an IC50 (MCF 7-ADR mammary; [10]) of 84.8 µM, an IC50 [1, 7] of 0.001 µM and an IC50 [1, 6] of 55.9 µM. It also gave an IC50 [2, 9] of 0.0007 µM and an IC50 [2, 8] of 2.84 µM.

COc1cc(OC)c2sc(-c3ccc(N)cc3)nc2c1 [DF162D, 2-(4-Aminophenyl)-5,7-dimethoxybenzothiazole] was tested, and the IC50 (MCF 7-ADR mammary; [10]) was 20.9 µM, the IC50 [1, 6] was 19.3 µM and the IC50 [2, 9] was 0.0035 µM.

In the case of Nc1ccc(-c2nc3cc(O)cc(O)c3s2)cc1 [DF162Eb, 2-(4-Aminophenyl)-5,7-dihydroxybenzothiazole], the IC50 (MCF 7-ADR mammary; [10]) is reported as 13.9 µM, the IC50 [1, 6] is reported as 49.6 µM and the IC50 [2, 8] is reported as 16.3 µM.

In the case of Nc1ccc(-c2nc3ccccc3s2)cc1 [Example IC, 2-(4-Aminophenyl)benzothiazole methanesulphonic acid salt], the IC50 [1, 4] is reported as 0.0007 µM and the IC50 [2, 5] is reported as 0.0024 µM.

Nc1ccc(OS(=O)(=O)C(F)(F)F)c(-c2nc3ccccc3s2)c1 [Example XIV, 2-(3-Amino-6-trifluoromethylsulphonyloxyphenyl)benzothiazole] was tested, and the IC50 ([1]; Homo sapiens, MCF7, MCF-7 (wild type) cells, read-out: IC50) was 0.05 µM.

O=C1c2c(O)ccc(O)c2C(=O)c2c(NCCNCCO)ccc(NCCNCCO)c21 [Mitoxantrone, reference compound] was tested, and the BWC ([3]; i.v., 10 mg/kg/day, qd 27) was -5, the “Relative tumour volume (T/C%)” value ([3]; i.v., 10 mg/kg/day, qd 27, d33) was 58* % and the “Relative tumour volume (T/C%)” value ([3]; i.v., 10 mg/kg/day, qd 27, d41) was 26* %. The “Relative tumour volume (T/C%)” value ([3]; i.v., 10 mg/kg/day, qd 27, d47) was 6* %, the “Relative tumour volume (T/C%)” value ([3]; i.v., 10 mg/kg/day, qd 27, d55) was 7* % and the “Relative tumour volume (T/C%)” value ([3]; i.v., 10 mg/kg/day, qd 27, d61) was 4* %. The “Relative tumour volume (T/C%)” value (MCF-7 mammary carcinoma; d9) was 52%, the “Relative tumour volume (T/C%)” value (MCF-7 mammary carcinoma; d13) was 32* % and the “Relative tumour volume (T/C%)” value (MCF-7 mammary carcinoma; d20) was 38* %. For the same compound, the “Relative tumour volume (T/C%)” value (MCF-7 mammary carcinoma; d27) was 26* %, the “Relative tumour volume (T/C%)” value (MCF-7 mammary carcinoma; d35) was 29* % and the “Relative tumour volume (T/C%)” value (MCF-7 mammary carcinoma; d43) was 29* %. For the same compound, the “BWC (%)” value (MCF-7 mammary carcinoma; relative to saline treated animals) was -10%.

CC[C@]1(O)C[C@H]2CN(CCc3c([nH]c4ccccc34)[C@@](C(=O)OC)(c3cc4c(cc3OC)N(C=O)[C@H]3[C@@](O)(C(=O)OC)[C@H](OC(C)=O)[C@]5(CC)C=CCN6CC[C@]43[C@@H]65)C2)C1 [Vincristine, reference compound] was tested, and the BWC ([3]; i.p., 1 mg/kg/day, qd 27) was -6, the “Relative tumour volume (T/C%)” value ([3]; i.p., 1 mg/kg/day, qd 27, d33) was 142% and the “Relative tumour volume (T/C%)” value ([3]; i.p., 1 mg/kg/day, qd 27, d41) was 62%. For the same compound, the “Relative tumour volume (T/C%)” value ([3]; i.p., 1 mg/kg/day, qd 27, d47) was 61%, the “Relative tumour volume (T/C%)” value ([3]; i.p., 1 mg/kg/day, qd 27, d55) was 61% and the “Relative tumour volume (T/C%)” value ([3]; i.p., 1 mg/kg/day, qd 27, d61) was 57%.
